This note sets out measurements from patent US9302981B2, “Synthesis, methods of using, and compositions of cycloalkylmethylamines” (Reviva Pharmaceuticals, Inc., priority 2006, dated 2016).

In assay [1] the target is human recombinant dopamine transporter (DAT) (Homo sapiens (Human), UniProt Q01959). Kind of assay: Radioligand binding assay, dopamine transporter (MDS Pharma). Particulars: for nH (Hill coefficient): DAT, slope of the competitive binding curve. As to the method: (§1) The monoamine transporters inhibitory activities of selected compounds (54b and 54d) are reported herein. The compounds were evaluated at MDS Pharma services (22011 Drive SE, Bothell, Wash. 98021, USA) using well established radioligand binding assays protocols (Galli, A. et al., J. Exp. Biol. 1995, 198, 2197-2212; Giros, B. et al., Trends Pharmcol. Sci. 1993, 14, 43-49; Gu, H. et al., J. Biol. Chem. 1994, 269(10), 7124-7130; Shearman, L. P. et al, Am. J. Physiol., 1998, 275 (6 Pt 1), C1621-1629; Wolf, W. A. et al., J. Biol. Chem. 1992, 267(29), 20820-20825). The human recombinant transporter proteins dopamine (DAT), norepinephrine (NET) and serotonin (SERT) were selected for the in vitro assays. The CHO-K1 cells expressed with human recombinant dopamine transporter (DAT) (MDS catalog 220320) was used for evaluating the dopamine transporter inhibitory activity. Whereas, MDCK cells expressed with human recombinant transporters norepinephrine (NET) (MDS catalog no. 204410) and serotonin (SERT) (MDS catalog no. 274030) were used for evaluating the norepinephrine transporter (NET) and serotonin transporter (SERT) inhibitory activities, respectively. The radioligand binding assays were carried out at four different test concentrations and the test concentrations were 1 nM, 10 nM, 0.1 μM, and 1 μM.
(§2) The assays were carried out in duplicates and the quantitative data are reported as IC50, Ki, and nH. Where presented, IC50 values were determined by a non-linear, least squares regression analysis using MathIQ™ (ID Business Solutions Ltd. UK). […] Where presented, the Hill coefficient (nH), defining the slope of the competitive binding curve, was calculated using MathIQ™.

Assay [2] deals with human recombinant norepinephrine transporter (NET) (Homo sapiens (Human), UniProt P23975). In words: Radioligand binding assay, norepinephrine transporter (MDS Pharma). To be noted: for nH (Hill coefficient): NET, slope of the competitive binding curve. As to the method:
The human recombinant transporter proteins dopamine (DAT), norepinephrine (NET) and serotonin (SERT) were selected for the in vitro assays. […] The radioligand binding assays were carried out at four different test concentrations and the test concentrations were 1 nM, 10 nM, 0.1 μM, and 1 μM.
as §2

Assay [3] deals with human recombinant serotonin transporter (SERT) (Homo sapiens (Human), UniProt P31645). In words: Radioligand binding assay, serotonin transporter (MDS Pharma). Particulars: for nH (Hill coefficient): SERT, slope of the competitive binding curve. The procedure: as §1, §2

Chain of human recombinant norepinephrine transporter (NET) (P23975 whole entry): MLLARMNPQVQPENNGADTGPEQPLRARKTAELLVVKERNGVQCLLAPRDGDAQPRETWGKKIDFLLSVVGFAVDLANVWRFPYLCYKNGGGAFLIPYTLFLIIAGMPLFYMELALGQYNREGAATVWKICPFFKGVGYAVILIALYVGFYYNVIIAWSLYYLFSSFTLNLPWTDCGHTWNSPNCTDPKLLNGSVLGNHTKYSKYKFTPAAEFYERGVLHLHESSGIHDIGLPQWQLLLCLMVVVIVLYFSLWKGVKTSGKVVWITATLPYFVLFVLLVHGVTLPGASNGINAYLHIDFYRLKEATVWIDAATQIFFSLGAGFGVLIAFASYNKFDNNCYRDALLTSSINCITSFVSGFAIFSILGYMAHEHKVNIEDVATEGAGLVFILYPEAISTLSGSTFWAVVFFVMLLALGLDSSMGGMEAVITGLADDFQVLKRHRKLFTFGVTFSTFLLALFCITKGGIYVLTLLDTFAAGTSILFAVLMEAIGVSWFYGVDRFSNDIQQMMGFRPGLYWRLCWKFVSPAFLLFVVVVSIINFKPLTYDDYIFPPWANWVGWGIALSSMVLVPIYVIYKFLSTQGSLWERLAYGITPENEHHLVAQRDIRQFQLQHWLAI

Usually IC50 stands for the concentration at which inhibition is half-maximal. One may read the Ki as a measure of affinity in units of concentration, obtained from inhibition or displacement. With `CCOC(=O)C(CC)NC(CC(C)C)C1(c2ccc(Cl)cc2)CCC1` (stereo not drawn) [Compound 54b, Ethyl 2-(1-(1-(4-chlorophenyl)cyclobutyl)-3-methylbutylamino]butanoate], the IC50 came out at 56.9 nM in assay [1], 121 nM in assay [2] and 140 nM in assay [3]. Also, the values for the Ki in assay [1], in assay [2] and in assay [3] were 45.2 nM, 120 nM and 22.8 nM, respectively. Besides, the figures for the “nH (Hill coefficient)” value in assay [1], in assay [2] and in assay [3] were 0.826, 0.832 and 0.677, respectively.
For the compound `CCC(NC(CC(C)C)C1(c2ccc(Cl)cc2)CCC1)C(=O)OCC(C)C` (stereo not drawn) [Compound 54d, Isobutyl 2-(1-(1-(4-chlorophenyl)cyclobutyl)-3-methylbutylamino]butanoate], in assay [1], the IC50 came out at 370 nM, the Ki was 294 nM and the “nH (Hill coefficient)” value came to 0.943. For the same compound, in assay [2], the IC50 turned out to be 182 nM, the Ki was 180 nM and the “nH (Hill coefficient)” value worked out at 1.04. For the same compound, in assay [3], the IC50 amounted to 415 nM, the Ki was determined as 67.6 nM and the “nH (Hill coefficient)” value turned out to be 0.578.
